Where two headings read alike, the source gives them in different places.
Experiments:
Assay type in all cases: cell-based
[1] = test system: human peripheral blood mononuclear cells; test: Cytokine profiling in LPS-stimulated hPBMC; conditions: for IL-10 (% of control) / MCP-1 (% of control) / RANTES (% of control): 0.1 μM concentration; for IC50: Homo sapiens, PBMC, 18 h, LPS 1 ng/ml, 18 hours
Procedure: Fifty ml human buffy coat was aliquoted 25 ml each into two 50 ml conical tubes and 25 ml sterile HBSS was added to each conical tube. The tubes were gently mixed by inverting. Fifteen ml of room temperature Ficoll-Paque Plus (GE Healthcare (location); cat #17-1440-02) was aliquoted into four 50 ml conical tubes. Then 25 ml of the Buffy coat/IBSS mixture was layered gently and slowly on top of the Ficoll. The samples were centrifuged at 450 rpm for 35 minutes. The top layered containing plasma was pipetted off and discarded. The interface containing mononuclear cells was transferred into two 50 ml conical tubes. Both conical tubes were filled to total volume of 50 ml with HBSS and centrifuged at 1200 rpm for 10 minutes. The cells were washed again in HBSS and spun at 1000 rpm for 10 minutes. Cell pellet was resuspended with 20 ml RPMI complete medium (RPMI/5% human sera/1× pen/strep/glut) and counted.
One hundred μl (2×10^6/ml) of hPBMCs were added to each well of a 96 well flat-bottom plate (final cell count=2×10^5/well) and incubated at 37° C. for 1 hour. Twenty μl (10×) compound was added to each test well and twenty μl medium containing 2.5% DMSO was added to each control well ([DMSO]final=0.25%) and plate was incubated for 1 hour at 37° C. Cells were then stimulated with 80 μl of 2.5 ng/ml LPS ([LPS]final=1 ng/ml) and incubated for 18 hours at 37° C. Fifty μl supernatant from each well was transferred into 3 new round-bottomed 96 well plates and stored at −20° C. for Luminex analysis. Duplicate wells were performed for each sample.
Supernatant samples were analyzed for cytokines in multiplex format according to the manufacturer's instructions (Millipore, Billerica, Ma 01821) using a Luminex IS100 instrument. IL-12 and GM-CSF analyses were done in a two-plex format using neat supernatants while all other cytokines were done in a multiplex format using supernatants diluted 1:20. Data analysis was performed using Upstate Beadview software. […] The IC50 were performed using GraphPad Prism v5.00. The data values represent the mean+SEM (standard error of the mean) of n (number of experiments in duplicate).

[2] = test system: Human umbilical vascular endothelial cells; test: Growth factor-induced HUVEC proliferation assay; conditions: for IC50: Homo sapiens, Endothelial cell
Procedure: Human Umbilical Vascular Endothelial Cells Proliferation Assay: Human umbilical vascular endothelial cells were thawed and grown in EGM2 medium until passage 3 to 6 for all proliferation assays. Human umbilical vascular endothelial cells were trypsinized, washed with 20% FBS/M199 medium and plated with the same medium at 10^4 cells/100 μL per well to 96-well cell culture plates. The plates were incubated overnight at 37° C. to allow cells to adhere. The cells were then starved in 1% FBS/M199 medium for 18 hours after washing with the same medium 3 times. For optimization of the concentration of the growth factors in the HUVEC proliferation assay, 100 µL/well of the 2× serial diluted growth factors, starting at 100 ng/mL, were added to HUVECs in duplicate for 72 hours at 37° C. in a humidified cell culture incubator with 5% CO2. For analysis of test compounds, a serial dilution of the test compounds in 0.4% DMSO/1% FBS/M199 medium in duplicate was made from the 10 mM stock. Fifty microliters per well of the serially diluted test compounds (10, 1.0, 0.1, 0.01, 0.001, 0.0001, 0.00001 μM) were added to the cells for 1 to 2 hours at 37° C. The final DMSO concentration in the cells is 0.1%. Then 50 μL of 4× final concentration of relative growth factors was added to each well in duplicate for 72 hours at 37° C. in a humidified cell culture incubator with 5% CO2. Thymidine incorporation was measured by adding one microcurie of 3H-thymidine (Amersham) in 20 μL medium to each well and incubated at 37° C. in a humidified cell culture incubator with 5% CO2 for 5 to 6 hours. The cells were then trypsinized and harvested onto UniFilter GF/C filter plates (Perkin Elmer) by using the cell harvester (Tomtec). After the plates were air dried, 20 μL/well of Microscint 20 (Packard) was added then the plates were analyzed in TopCount NXT (Packard). Each well was counted for one minute. The experiments were performed in duplicate in each of 3 donors.
The percentage inhibition of cell proliferation, tube formation, migration, and invasion was calculated by subtracting the result for unstimulated DMSO control from test sample results, averaging all replicates, and normalizing to the growth factor-stimulated DMSO control (0% inhibition). The IC50 values were calculated by using GraphPad Prism 5.0.

[3] = test system: anti-CD3-stimulated human T cells; test: Cytokine production by T cells (multi-plex CBA); conditions: for IL-10 production at high concentration: >10 nM; for concentrations that enhanced IL-2, IL-3, IL-5, IL-10, IL-13, GM-CSF, IFN-γ, TNF-α and RANTES: for compound I RANTES at 10 nM
Procedure: T cells were isolated from buffy coat by negative selection using the RosetteSep® T Cell Enrichment Cocktail. The manufacturer's procedures were followed accordingly. All 96-well plates were pre-coated with […] anti-human CD3 antibody in 100 μl 1×PBS for 4 hours at 37° C. The plates were washed three times with RPMI-1640 Complete Media prior to the T cell assay. T cells were then plated in CD3 pre-coated plates at a density of 2.5×10^5 cells/well in 180 μl RPMI-1640 Complete Media. The cells were treated with 20 μl 10× titrated compounds at 10, 1, 0.1, 0.01, 0.001, 0.0001 and 0.00001 μM. Final DMSO concentrations were 0.25%. The plates were incubated for 48 hours at 37° C., 5% CO2. After 48 hours, the supernatants were harvested and tested by a multi-plex cytometric bead array (CBA) assay for the following cytokines/chemokines: IL-2, IL-3, IL-5, IL-10, IL-13, IL-15, IL-17a, GM-CSF, G-SCF, IFN-γ, TNF-α and RANTES. The CBA plates were analyzed on the Luminex IS100 instrument. Data from each donor was graphed using GraphPad Prism 5.0 software and expressed as mean pg/mL±SEM and % of DMSO control±SEM.

rat aorta = test: Rat aorta assay
Procedure: Compounds I, I-R, and I-S were tested in various angiogenesis inhibition assays.

[4] = read-out: GM-CSF production IC50
[5] = read-out: IL-1β production IC50
[6] = read-out: MIP-1α production IC50
[7] = read-out: MIP-1β production IC50
[8] = read-out: TNF-α production IC50
[9] = read-out: bFGF (10 ng/mL) IC50 Values, bFGF-induced proliferation
[10] = HGF-induced proliferation, read-out: HGF (25 ng/mL) IC50 Values
[11] = VEGF-induced proliferation, read-out: VEGF (25 ng/mL) IC50 Values

IC50 [1, 4]	IC50 [1, 5]	IC50 ([1]; read-out: IL-6 production IC50)	IC50 ([1]; read-out: IL-8 production IC50)	IC50 ([1]; read-out: MDC production IC50)	IC50 [1, 7]	IC50 [1, 8]	Structure (SMILES)	IL-10 (% of control) [1]	MCP-1 (% of control) [1]	RANTES (% of control) [1]	IC50 [1, 6]	inhibition of VEGF-, bFGF-, or HGF-induced HUVEC proliferation [2]	IC50 [2, 9]	IC50 [2, 10]	IC50 [2, 11]	GM-CSF production, times those of control cells ([3]; 10 nM)	IL-2 production, times those of control cells ([3]; 10 nM)	IL-13 production, times those of control cells ([3]; 10 nM)	IL-10 production at high concentration [3]	anti-angiogenic activity in rat aorta assay (rat aorta)	other results
39 nM	6.2 nM	83 nM	> 10000 nM	12 nM	> 10000 nM	9.5 nM	O=C1CC[C@@H](N2Cc3c(OCc4ccc(CN5CCOCC5)cc4)cccc3C2=O)C(=O)N1 [Compound I-R, (R)-3-(4-((4-(morpholinomethyl)benzyl)oxy)-1-oxoisoindolin-2-yl)piperidine-2,6-dione]	442 % of control	223 % of control	151 % of control	–	did not inhibit	76000 nM	38000 nM	> 100000 nM	6 times	15 times	7 times	inhibited	modest anti-angiogenic activity	IL-10 production enhancement ([3]; 0.01 to 1 nM): ~6 fold; IL-5 production, times that of control cells ([3]; 1 to 100 nM): up to 2.5 times; concentrations that enhanced IL-2, IL-3, IL-5, IL-10, IL-13, GM-CSF, IFN-γ, TNF-α and RANTES [3]: ≥ 1 nM
2.2 nM	0.46 nM	3.8 nM	> 10000 nM	2.1 nM	> 10000 nM	0.59 nM	O=C1CC[C@H](N2Cc3c(OCc4ccc(CN5CCOCC5)cc4)cccc3C2=O)C(=O)N1 [Compound I-S, (S)-3-(4-((4-(morpholinomethyl)benzyl)oxy)-1-oxoisoindolin-2-yl)piperidine-2,6-dione]	379 % of control	233 % of control	153 % of control	28 nM	did not inhibit	52000 nM	51000 nM	> 100000 nM	5 times	18 times	7 times	inhibited	modest anti-angiogenic activity	concentrations with significant enhancement of proliferation ([2]; VEGF-treated HUVECs): 1 to 10 µM; concentration at which enhancement of IL-5 production peaked [3]: 1 nM; IL-5 production, times over that of control cells ([3]; 1 nM): 6 times; concentrations that enhanced IL-2, IL-3, IL-5, IL-10, IL-13, GM-CSF, IFN-γ, TNF-α and RANTES [3]: ≥ 1 nM

Structure (SMILES)	IC50 [1, 4]	IC50 [1, 5]	IC50 ([1]; read-out: IL-6 production IC50)	IC50 ([1]; read-out: IL-8 production IC50)	IC50 ([1]; read-out: MDC production IC50)	IC50 [1, 7]	IC50 [1, 8]	IL-10 (% of control) [1]	MCP-1 (% of control) [1]	RANTES (% of control) [1]	IC50 [1, 6]	inhibition of VEGF-, bFGF-, or HGF-induced HUVEC proliferation [2]	IC50 [2, 9]	IC50 [2, 10]	IC50 [2, 11]	GM-CSF production, times those of control cells ([3]; 10 nM)	IL-2 production, times those of control cells ([3]; 10 nM)	IL-13 production, times those of control cells ([3]; 10 nM)	IL-10 production at high concentration [3]	anti-angiogenic activity in rat aorta assay (rat aorta)	other results
O=C1CCC(N2Cc3c(OCc4ccc(CN5CCOCC5)cc4)cccc3C2=O)C(=O)N1 (racemic) [Compound I, 3-(4-((4-(morpholinomethyl)benzyl)oxy)-1-oxoisoindolin-2-yl)piperidine-2,6-dione]	9.2 nM	0.85 nM	10 nM	> 10000 nM	2.6 nM	> 10000 nM	1.8 nM	372 % of control	208 % of control	153 % of control	190 nM	did not inhibit	99000 nM	24000 nM	> 100000 nM	6 times	22 times	6.5 times	inhibited	modest anti-angiogenic activity	concentrations with significant enhancement of proliferation ([2]; bFGF-treated HUVECs): 0.01 to 1 µM; concentration at which enhancement of IL-5 production peaked [3]: 1 nM; GM-CSF production, times those of control cells ([3]; 1 nM): 3 times; IL-2 production, times those of control cells ([3]; 1 nM): 7 times; IL-5 production, times over that of control cells ([3]; 1 nM): 6 times; IL-13 production, times those of control cells ([3]; 1 nM): 5 times; IL-5 production enhancement ([3]; 10 nM): ≤ 2 fold

— patent US20260007679A1, “METHODS OF TREATING CANCER USING 3-(4-((4-(MORPHOLINOMETHYL)BENZYL)OXY)-1-OXOISOINDOLIN-2-YL)PIPERIDINE-2,6-DIONE” (Celgene Corporation, priority 2012, published 2026)
